Source: patent US20250122182A1 (Isosterix, Inc., priority 2023, published 2025)

Target: Recombinant KAT6A/MOZ (488-778) protein (Homo sapiens (Human), UniProt Q92794)
Assay: KAT6A AlphaLISA Inhibition Screening Assay
Assay type: biochemical
Conditions: for inhibition at 1 µM: read-out: Average Kat6A % inhibition @ 1 μM; for inhibition at 1 µM / Average Kat6A % inhibition @ 1 μM: 1 μM test compound; for inhibition at 10 µM: read-out: Average Kat6A % inhibition @ 10 μM; for inhibition at 10 µM / Average Kat6A % inhibition @ 10 μM: 10 μM test compound
Method: The Kat6a inhibitory activity of test compounds was determined using an Alpha Screen-based detection method. The assay reactions were conducted in a volume of 10 μL in Alpha Plate, White 384 well plate (cat #6008280, Perkin Elmer). The enzymatic reactions were performed in assay buffer pH 8.0 (50 mM Tris-HCl, 0.1 mM EDTA, 0.01% Tween-20, 1 mM Dithiothreitol, 0.1% BSA (fatty acid free) and 330 nM TSA (Trichostatin A)). 10 μL reaction volume consisting of 25 nM of Recombinant KAT6A/MOZ (488-778) protein (Active motif, Catalog #81223), 400 nM Acetyl coenzyme A (Catalog #A2056, Sigma), 200 nM of Histone H3 peptide [(amino acids 1-21), biotin-labeled (BPS Biosciences, Catalog #52011)]. Test compounds were screened at different doses starting with 10 μM, 3 fold dilution and 10 point Dose response curve. Enzyme and compounds solution were pre-incubated in assay plate for 60 or 10 min at room temperature then substrate and Acetyl coenzyme A solution were added to the plate. After addition, the plate was sealed with adhesive seals and incubated for 120 minutes at room temperature.
After 120 minutes of incubation, […] of AlphaLISA anti-acetyl-Lysine acceptor beads (Perkin Elmer, Catalog #AL143C) were added to the plate and it was incubated for 60 minutes at room temperature. Then […] of Alpha Streptavidin donor beads (Perkin Elmer, Catalog #6760002S) were added to the plate which was further incubated for 60 minutes at room temperature. After incubation, the alpha signal was recorded by using Perkin Elmer Envision multi-mode reader. Percent inhibition of enzyme activity by test compounds were determined relative to vehicle control.

Chain of Recombinant KAT6A/MOZ (488-778) protein (Q92794 488-778): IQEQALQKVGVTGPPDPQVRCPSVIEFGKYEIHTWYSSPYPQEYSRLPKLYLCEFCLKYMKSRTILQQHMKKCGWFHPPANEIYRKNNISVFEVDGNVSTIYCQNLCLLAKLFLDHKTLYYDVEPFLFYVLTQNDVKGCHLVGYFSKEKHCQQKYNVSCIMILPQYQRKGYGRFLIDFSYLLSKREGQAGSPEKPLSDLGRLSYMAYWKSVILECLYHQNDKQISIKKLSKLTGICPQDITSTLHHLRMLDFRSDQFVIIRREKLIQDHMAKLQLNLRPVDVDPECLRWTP

SMILES | inhibition at 1 µM [%] | inhibition at 10 µM [%] | Average Kat6A % inhibition @ 1 μM [%] | Average Kat6A % inhibition @ 10 μM [%]
COc1ccc(S(=O)(=O)Nc2noc3cc(Cn4cc(CNS(C)(=O)=O)cn4)cc(OC)c23)c(OC)c1 [Syn. Ex. 10, 2,4-dimethoxy-N-(4-methoxy-6-((4-(methylsulfonamidomethyl)-1H-pyrazol-1-yl)methyl)benzo[d]isoxazol-3-yl)benzenesulfonamide] | 100 | 100 |  | 
CCc1ccc(OC)c(S(=O)(=O)Nc2noc3cc(Oc4ncc(CNC(=O)OC)o4)cc(OC)c23)c1 [Syn. Ex. 100, methyl ((2-((3-((5-ethyl-2-methoxyphenyl)sulfonamido)-4-methoxybenzo[d]isoxazol-6-yl)oxy)oxazol-5-yl)methyl)carbamate] | 92 | 100 |  | 
C=C(F)C(=O)NCc1cnn(Cc2cc(OC)c3c(NS(=O)(=O)c4cc(CC)ccc4OCC(N)=O)noc3c2)c1 [Syn. Ex. 45, N-((1-((3-((2-(2-amino-2-oxoethoxy)-5-ethylphenyl)sulfonamido)-4-methoxybenzo[d]isoxazol-6-yl)methyl)-1H-pyrazol-4-yl)methyl)-2-fluoroacrylamide] | 85 | 99 |  | 
CCc1ccc(OC)c(S(=O)(=O)Nc2noc3cc(Cn4cc(CNC(N)=O)cn4)cc(OC)c23)c1 [Syn. Ex. 90, 5-ethyl-2-methoxy-N-(4-methoxy-6-((4-(ureidomethyl)-1H-pyrazol-1-yl)methyl)benzo[d]isoxazol-3-yl)benzenesulfonamide] | 99 | 100 |  | 
COC(=O)NCc1cnn(Cc2cc(OC)c3c(NS(=O)(=O)c4cccc5cc(C)cnc45)noc3c2)c1 [Syn. Ex. 129, methyl ((1-((4-methoxy-3-((3-methylquinoline)-8-sulfonamido)benzo[d]isoxazol-6-yl)methyl)-1H-pyrazol-4-yl)methyl)carbamate] |  |  | 102 | 102
C=C(F)C(=O)NCc1cnn(Cc2cc(OC)c3c(NS(=O)(=O)c4cc(CC)ccc4OCc4ccnc(OC)c4)noc3c2)c1 [Syn. Ex. 94, N-((1-((3-((5-ethyl-2-((2-methoxypyridin-4-yl)methoxy)phenyl)sulfonamido)-4-methoxybenzo[d]isoxazol-6-yl)methyl)-1H-pyrazol-4-yl)methyl)-2-fluoroacrylamide] | 100 | 100 |  | 
C#CC(=O)NCc1cnn(Cc2cc(OC)c3c(NS(=O)(=O)c4cc(CC)ccc4OCCO)noc3c2)c1 [Syn. Ex. 65, N-((1-((3-((5-ethyl-2-(2-hydroxyethoxy)phenyl)sulfonamido)-4-methoxybenzo[d]isoxazol-6-yl)methyl)-1H-pyrazol-4-yl)methyl)propiolamide] | 100 | 100 |  | 
CCc1ccc(OCc2ncc[nH]2)c(S(=O)(=O)Nc2noc3cc(Cn4cc(CNC(=O)OC)cn4)cc(OC)c23)c1 [Syn. Ex. 116, methyl ((1-((3-((2-((1H-imidazol-2-yl)methoxy)-5-ethylphenyl)sulfonamido)-4-methoxybenzo[d]isoxazol-6-yl)methyl)-1H-pyrazol-4-yl)methyl)carbamate] | 100 | 100 |  | 
CCc1ccc(OC)c(S(=O)(=O)Nc2noc3cc(Cn4cc(CNC(=O)OC)cn4)c(OC)cc23)c1 [Syn. Ex. 137, methyl ((1-((3-((5-ethyl-2-methoxyphenyl)sulfonamido)-5-methoxybenzo[d]isoxazol-6-yl)methyl)-1H-pyrazol-4-yl)methyl)carbamate] | 98 | 89 |  | 
C=C(F)C(=O)NCc1cnc(Oc2cc(OC)c3c(NS(=O)(=O)c4cc5c(cc4OC)CCC5)noc3c2)s1 [Syn. Ex. 143, 2-fluoro-N-((2-((4-methoxy-3-((6-methoxy-2,3-dihydro-1H-indene)-5-sulfonamido)benzo[d]isoxazol-6-yl)oxy)thiazol-5-yl)methyl)acrylamide] |  |  | 101 | 99

Next, values leading:

inhibition at 1 µM [%] | inhibition at 10 µM [%] | Average Kat6A % inhibition @ 1 μM [%] | Average Kat6A % inhibition @ 10 μM [%] | SMILES
100 | 100 |  |  | C#CC(=O)N1Cc2cnn(Cc3cc(OC)c4c(NS(=O)(=O)c5cc(Cl)ccc5OC)noc4c3)c2C1 [Syn. Ex. 1, 5-chloro-2-methoxy-N-(4-methoxy-6-((5-propioloyl-5,6-dihydropyrrolo[3,4-c]pyrazol-1(4H)-yl)methyl)benzo[d]isoxazol-3-yl)benzenesulfonamide]
99 | 100 |  |  | C=C(F)C(=O)N1Cc2cnn(Cc3cc(OC)c4c(NS(=O)(=O)c5cc(CC)ccc5OC)noc4c3)c2C1 [Syn. Ex. 13, 5-ethyl-N-(6-((5-(2-fluoroacryloyl)-5,6-dihydropyrrolo[3,4-c]pyrazol-1(4H)-yl)methyl)-4-methoxybenzo[d]isoxazol-3-yl)-2-methoxybenzenesulfonamide]
 |  | 75 | 97 | CCc1ccc(OC)c(S(=O)(=O)Nc2noc3cc(Cn4cc(CNC(=O)OCCN)cn4)cc(OC)c23)c1 [Syn. Ex. 32, 2-aminoethyl ((1-((3-((5-ethyl-2-methoxyphenyl)sulfonamido)-4-methoxybenzo[d]isoxazol-6-yl)methyl)-1H-pyrazol-4-yl)methyl) carbamate]
96 | 98 |  |  | C=C(F)C(=O)NCc1cnn(Cc2cc(OC)c3c(NS(=O)(=O)c4cc(CC)ccc4OCC#N)noc3c2)c1 [Syn. Ex. 43, N-((1-((3-((2-(cyanomethoxy)-5-ethylphenyl)sulfonamido)-4-methoxybenzo[d]isoxazol-6-yl)methyl)-1H-pyrazol-4-yl)methyl)-2-fluoroacrylamide]
71 | 100 |  |  | C#CC(=O)N1Cc2cn(Cc3cc(OC)c4c(NS(=O)(=O)c5cc(Cl)ccc5OC)noc4c3)nc2C1 [Syn. Ex. 2, 5-chloro-2-methoxy-N-(4-methoxy-6-((5-propioloyl-5,6-dihydropyrrolo[3,4-c]pyrazol-2(4H)-yl)methyl)benzo[d]isoxazol-3-yl)benzenesulfonamide]
108 | 108 |  |  | COC(=O)NCc1cnn(Cc2cc3onc(NS(=O)(=O)c4ccccc4OC)c3cc2OC)c1 [Syn. Ex. 145, methyl ((1-((5-methoxy-3-((2-methoxyphenyl)sulfonamido)benzo[d]isoxazol-6-yl)methyl)-1H-pyrazol-4-yl)methyl)carbamate]
78 | 92 |  |  | CCc1ccc(OC)c(S(=O)(=O)Nc2noc3cc(Oc4ncc(CN[S+]([O-])C(C)(C)C)o4)cc(OC)c23)c1 (stereo not drawn) [Syn. Ex. 98, N-(6-((5-(((tert-Butylsulfinyl)amino)methyl)oxazol-2-yl)oxy)-4-methoxybenzo[d]isoxazol-3-yl)-5-ethyl-2-methoxybenzenesulfonamide]
100 | 100 |  |  | CCc1ccc(OCc2ncon2)c(S(=O)(=O)Nc2noc3cc(Cn4cc(CNC(=O)OC)cn4)cc(OC)c23)c1 [Syn. Ex. 74, methyl ((1-((3-((2-((1,2,4-oxadiazol-3-yl)methoxy)-5-ethylphenyl)sulfonamido)-4-methoxybenzo[d]isoxazol-6-yl)methyl)-1H-pyrazol-4-yl)methyl)carbamate]
96 | 100 |  |  | C=C(F)C(=O)NCc1cnn(Cc2cc(OC)c3c(NS(=O)(=O)c4cc(CC)ccc4OCC(=O)N4CCOCC4)noc3c2)c1 [Syn. Ex. 68, N-((1-((3-((5-ethyl-2-(2-morpholino-2-oxoethoxy)phenyl)sulfonamido)-4-methoxybenzo[d]isoxazol-6-yl)methyl)-1H-pyrazol-4-yl)methyl)-2-fluoroacrylamide]
 |  | 101 | 101 | COC(=O)NCc1cnn(Cc2cc3onc(NS(=O)(=O)c4cc5c(cc4OC)CCC5)c3cc2OC)c1 [Syn. Ex. 147, methyl ((1-((5-methoxy-3-((6-methoxy-2,3-dihydro-1H-indene)-5-sulfonamido)benzo[d]isoxazol-6-yl)methyl)-1H-pyrazol-4-yl)methyl)carbamate]
100 | 100 |  |  | CCC(=O)N1Cc2cnn(Cc3cc(OC)c4c(NS(=O)(=O)c5ccccc5OC)noc4c3)c2C1 [Syn. Ex. 3, 2-methoxy-N-(4-methoxy-6-((5-propionyl-5,6-dihydropyrrolo[3,4-c]pyrazol-1(4H)-yl)methyl)benzo[d]isoxazol-3-yl)benzenesulfonamide]
96 | 98 |  |  | CCc1ccc(OCCN2CCOC2=O)c(S(=O)(=O)Nc2noc3cc(Cn4cc(CNC(=O)OC)cn4)cc(OC)c23)c1 [Syn. Ex. 77, methyl ((1-((3-((5-ethyl-2-(2-(2-oxooxazolidin-3-yl)ethoxy)phenyl)sulfonamido)-4-methoxybenzo[d]isoxazol-6-yl)methyl)-1H-pyrazol-4-yl)methyl)carbamate]
